What was measured:
[1] = tested on: bloodstream form of T. brucei; experiment: alamarBlue (resazurin) antitrypanosomal assay; assay type: cell-based, Trypanosoma brucei; details: for IC50: bloodstream form, 72 h, alamarBlue/resazurin, error as σ; for selectivity index (SI) T. brucei: SI = IC50 MRC-5/IC50 T. brucei (resazurin assay)
[2] = tested on: promastigote form of L. major; experiment: MTT-based antileishmanial assay, promastigotes; assay type: cell-based, Leishmania major; details: for IC50: promastigotes, 72 h, MTT, error as σ; for selectivity index (SI) L. major: SI = IC50 MRC-5/IC50 L. major promastigotes
Protocol: The antileishmanial activity of the compounds against the promastigote form of L. major, the […] was determined using an MTT-based assay (Sigma-Aldrich). Stock solutions of the compounds were prepared in DMSO with the final DMSO percentage in each well maintained below 1%. 4 × 10^6 parasites per mL were incubated at 28 °C in 96-well plates (50 μL/well) either alone or in the presence of increasing concentrations of compounds DMSO for 72 h. After the incubation period, 10 μL of MTT (5 mg/mL) was added to each well, and the parasites were incubated for 4 h at 28 °C. Subsequently, cell lysis was performed using 50 μL/well of 20% SDS. […] Data were presented as the average of at least three independent measurements, each conducted under triplicate conditions. […] “single marker” […] S7

MRC-5 cells = experiment: alamarBlue cytotoxicity assay, MRC-5; assay type: cell-based; details: 72 h
HeLa cells = experiment: alamarBlue antiproliferative assay, HeLa; assay type: cell-based, human; details: for IC50: Homo sapiens, HeLa, 72 h, alamarBlue; for selectivity index (SI) HeLa: SI = IC50 MRC-5/IC50 HeLa
HT-29 cells = experiment: alamarBlue antiproliferative assay, HT-29; assay type: cell-based, human; details: for IC50: Homo sapiens, HT-29, 72 h, alamarBlue; for selectivity index (SI) HT-29: SI = IC50 MRC-5/IC50 HT-29
[3] = tested on: F21T K+ (human telomeric G-quadruplex, potassium buffer); assay type: binding; details: ligand 10 μM, oligonucleotide 200 nM, 10 mM KCl
[4] = tested on: F21T Na+ (human telomeric G-quadruplex, sodium buffer); assay type: binding; details: ligand 10 μM, oligonucleotide 200 nM, 100 mM NaCl
[5] = tested on: FEbr1T (T. brucei G-quadruplex); experiment: FRET melting assay, FEbr1T; assay type: binding; details: ligand 10 μM, oligonucleotide 200 nM, 10 mM KCl
[6] = tested on: FMycT (c-Myc promoter G4); experiment: FRET melting assay, FMycT; assay type: binding; details: ligand 10 μM, oligonucleotide 200 nM, 1 mM KCl
[7] = tested on: Fmt6363T (human mitochondrial G-quadruplex); experiment: FRET melting assay, Fmt6363T; assay type: binding; details: ligand 10 μM, oligonucleotide 200 nM, 10 mM KCl
[8] = tested on: F10T (hairpin duplex DNA); assay type: binding; details: ligand 10 μM, oligonucleotide 200 nM, 10 mM KCl
[9] = tested on: F21T (DNA, G4) GGGTTAGGGTTAGGGTTAGGG; experiment: FRET melting; details: Na+ (100 mM NaCl); 10 mM Li cacodylate; compound 10 µM, DNA 200 nM
[10] = tested on: FMycT (DNA, G4) TTGAGGGTGGGTAGGGTGGGTAA; experiment: FRET melting; details: K+ (1 mM KCl), 99 mM LiCl; 10 mM Li cacodylate; compound 10 µM, DNA 200 nM
THP-1 cells = experiment: alamarBlue cytotoxicity assay, PMA-differentiated THP-1; assay type: cell-based, human; details: PMA-differentiated THP-1, 72 h
[11] = tested on: intracellular amastigote form of L. major; experiment: Luciferase assay, intracellular amastigotes in THP-1 macrophages; assay type: cell-based, Leishmania major; details: for IC50: intracellular amastigotes in THP-1 macrophages, 72 h, luciferase; for selectivity index (SI) THP-1: SI = IC50 THP-1/IC50 L. major amastigotes
Protocol: The antileishmanial activity of the compounds against the intracellular form of L. major was evaluated using the Luciferase Assay System kit from Promega. THP-1 cells were seeded at a density of 3 × 10^5 cells/mL in 96-well plates (100 μL/well) and treated with 20 ng/mL PMA (phorbol 12-myristate 13-acetate, Sigma) for 48 h to induce differentiation. Postdifferentiation, the cells were washed, and fresh medium was added (100 μL/well) before being reincubated. Following an additional 24 h, the wells were washed, and 50 μL of L. major parasites at a density of 1.5 × 10^6 parasites/mL (suspended in RPMI-1640 medium 5% hiFBS and 5% penicillin/streptomycin) were added to the wells. The plates were then incubated at 35 °C in 5% CO2. After 24 h, the wells were washed three times with PBS, and fresh medium with increasing concentrations of compounds was added (100 μL/well). After another 72 h of incubation, the cells were then treated with 25 μL of lysis buffer and stored at −80 °C. Following 24 h, 25 μL of luciferase enzyme substrate was added to each well, and the luciferase activity of the amastigotes was determined using a TECAN Infinite F200 microplate reader. […] Data were presented as the average of at least three independent measurements, each conducted under triplicate conditions.
Parasite and cell culturing […]
Leishmania major (MHOM/IL/80/Friedlin) promastigotes and its derivative luminescent strain L. major LucRE9 with the luciferase gene integrated into the parasite genome (LUC) were cultured at 28 °C, 5 % CO2 in modified RPMI-1640 medium (Invitrogen, Carlsbad, CA) supplemented with 10 % hiFBS6, including […] blasticidin in the LucRE9 strain. 7 Parasites were maintained in culture in their […] growth phase (below 2 million T. brucei parasites per mL, ,10 million L. major parasites per mL for promastigotes experiments), and in the stationary phase , 20 million L. major parasites per mL for THP -1 infection experiments.
MRC-5 cell line (human lung fibroblast) was grown in monolayer at 37 °C, 5 % CO2 in DMEM medium (1 g/L glucose) supplemented with 10% hiFBS, 100 U/mL penicillin, […] streptomycin and 2 mM L-glutamine.8
THP-1 cells (human monocytic cell line) were maintained in RPMI-1640 medium supplemented with 10% heat-inactivated fetal bovine serum (hiFBS) and 5 % penicillin/streptomycin (37 °C, 5 % CO2, and 100 % humidity). […]

Compound	IC50 ([1]; Trypanosoma brucei)	IC50 ([2]; Leishmania major)	selectivity index (SI) L. major [2]	IC50 (MRC-5 cells; MRC5, human lung fibroblasts)	IC50 (HeLa cells)	selectivity index (SI) HeLa (HeLa cells)	IC50 (HT-29 cells)	selectivity index (SI) HT-29 (HT-29 cells)	selectivity index (SI) T. brucei [1]	other results
CN(C)c1ccc(/C=C/c2sc3ccccc3[n+]2C)c2ccccc12.[I-] [2g]	20 ± 15 nM	170 ± 40 nM	23.9	4010 ± 90 nM	29100 ± 1050 nM	0.14	89500 ± 9550 nM	0.04		ΔTm F21T K+ [3]: 9.7 ± 0.2 °C; ΔTm F21T Na+ [4]: 3.4 ± 0.5 °C; ΔTm FEbr1T [5]: 8.9 ± 0.5 °C; ΔTm FMycT [6]: 3.0 ± 1.1 °C; ΔTm Fmt6363T [7]: 7.7 ± 0.3 °C; ΔTm F10T [8]: 0.4 ± 0.1 °C; ΔTm [9]: 3.4 ± 0.5 °C; ΔTm [10]: 3.0 ± 1.1 °C
C[C@@H]1[C@H](O)[C@@H](C)/C=C/C=C/C=C/C=C/C=C/C=C/C=C/[C@H](O[C@@H]2O[C@H](C)[C@@H](O)[C@H](N)[C@@H]2O)C[C@@H]2O[C@](O)(C[C@@H](O)C[C@@H](O)[C@H](O)CC[C@@H](O)C[C@@H](O)CC(=O)O[C@H]1C)C[C@H](O)[C@H]2C(=O)O [AmB, Amphotericin B]		1920 ± 50 nM								IC50 (THP-1 cells; Homo sapiens): 9890 ± 1980 nM; IC50 ([11]; Leishmania major): 4410 ± 1960 nM; selectivity index (SI) THP-1 [11]: 2.24
COS(=O)(=O)[O-].Cc1cc2c3c([n+](C)c4ccc(F)cc4c3c1)-c1cc(F)ccc1N2C [RHPS4, 3,11-Difluoro-6,8,13-Trimethyl-8H-Quino[4,3,2-Kl]Acridinium Methosulfate, reference compound]			93.64						11.77	IC50 [1]: 350 ± 60 nM; IC50 [2]: 44 ± 15 nM; IC50 (MRC-5 cells; human lung fibroblasts): 4120 ± 520 nM; IC50 (THP-1 cells): 214000 ± 3360 nM; selectivity index (SI) MRC-5 ([11]; SI = IC50 MRC-5/IC50 L. major amastigotes): 137.33; selectivity index (SI) THP-1 [11]: 7,131; IC50 [11]: 30 ± 20 nM
C[n+]1c(/C=C/c2ccccc2)sc2ccccc21.[I-] [compound 2a]	370 ± 180 nM	480 ± 110 nM	4.2	2020 ± 120 nM					5.5	
C[n+]1c(/C=C/c2ccc(N(c3ccccc3)c3ccccc3)cc2)sc2ccccc21.[I-] [compound 2c]	340 ± 130 nM				8890 ± 1590 nM	0.58	8910 ± 880 nM	0.58		ΔTm F21T K+ [3]: 12.7 ± 0.4 °C; ΔTm F21T Na+ [4]: 9.4 ± 0.5 °C; ΔTm FEbr1T [5]: 13.5 °C; ΔTm FMycT [6]: 8.6 ± 1.0 °C; ΔTm Fmt6363T [7]: 10.2 ± 0.5 °C; ΔTm F10T [8]: 0.7 ± 0.1 °C
Cn1cccc1/C=C/c1sc2ccccc2[n+]1C.[I-] [compound 2e]	2290 ± 310 nM	240 ± 29 nM	39.6	9400 ± 1060 nM	78000 ± 8260 nM	0.12	76400 ± 1440 nM	0.12	4.1	
Cn1cccc1-c1ccc(/C=C/c2sc3ccccc3[n+]2C)s1 [compound 2f]	610 ± 45 nM	610 ± 92 nM	6.0	3680 ± 170 nM					6.0	
C[n+]1c(/C=C/c2cc3c4c(c2)CCCN4CCC3)sc2ccccc21.[I-] [compound 2h]	0.26 ± 0.17 nM				840 ± 10 nM	0.09	1000 ± 160 nM	0.08		ΔTm F21T K+ [3]: 16.9 °C; ΔTm F21T Na+ [4]: 9.4 ± 0.3 °C; ΔTm FEbr1T [5]: 14.1 °C; ΔTm FMycT [6]: 12.6 ± 0.9 °C; ΔTm Fmt6363T [7]: 15.0 ± 0.4 °C; ΔTm F10T [8]: 0.9 ± 0.4 °C
C[n+]1c(/C=C/c2ccc(-c3ccc(N(c4ccccc4)c4ccccc4)cc3)s2)sc2ccccc21 [compound 2i]	1830 ± 60 nM	45 ± 12 nM	86.2	3880 ± 170 nM					2.12	
CSc1ccc(OCc2ncc([N+](=O)[O-])n2C)cc1 [fexinidazole, reference compound]	880 ± 20 nM									
CCCCCCCCCCCCCCCCOP(=O)([O-])OCC[N+](C)(C)C [miltefosine]		5710 ± 460 nM								IC50 (THP-1 cells; Homo sapiens): 55190 ± 110 nM; IC50 ([11]; Leishmania major): 5100 ± 560 nM; selectivity index (SI) THP-1 [11]: 10.82
Cc1ccc(C(=O)Nc2ccc(S(=O)(=O)O)c3cc(S(=O)(=O)O)cc(S(=O)(=O)O)c23)cc1NC(=O)c1cccc(NC(=O)Nc2cccc(C(=O)Nc3cc(C(=O)Nc4ccc(S(=O)(=O)O)c5cc(S(=O)(=O)O)cc(S(=O)(=O)O)c45)ccc3C)c2)c1 [suramin, reference compound]	4.2 ± 0.3 nM									

From article PMC12643529 (ACS Infectious Diseases, 2025)
